Data reported in publication PMC5998028, “Synthesis, antimicrobial activity and conformational analysis of the class IIa bacteriocin pediocin PA-1 and analogs thereof” (Scientific Reports, 2018).

Assay: Stability of the peptide in solution (storage, handling, assays)
Conditions: qualitative, relative to Met31-containing pediocin PA-1 3c

CC[C@H](C)[C@H](NC(=O)[C@H](CS)NC(=O)[C@@H](NC(=O)[C@@H](NC(=O)[C@H](C)NC(=O)[C@H](CCCCN)NC(=O)CNC(=O)[C@H](Cc1c[nH]c2ccccc12)NC(=O)[C@H](CC(=O)O)NC(=O)[C@@H](NC(=O)[C@H](CO)NC(=O)[C@H](CS)NC(=O)[C@H](CO)NC(=O)[C@H](Cc1c[nH]cn1)NC(=O)[C@H](CCCCN)NC(=O)CNC(=O)[C@H](CS)NC(=O)[C@@H](NC(=O)[C@@H](NC(=O)CNC(=O)[C@H](CC(N)=O)NC(=O)CNC(=O)[C@H](Cc1ccc(O)cc1)NC(=O)[C@H](Cc1ccc(O)cc1)NC(=O)[C@@H](N)CCCCN)C(C)C)[C@@H](C)O)C(C)C)[C@@H](C)O)[C@@H](C)O)C(=O)N[C@H](C(=O)N[C@@H](CC(N)=O)C(=O)N[C@@H](CC(N)=O)C(=O)NCC(=O)N[C@@H](C)C(=O)N[C@@H](CC(C)C)C(=O)N[C@@H](C)C(=O)N[C@@H](Cc1c[nH]c2ccccc12)C(=O)N[C@@H](C)C(=O)N[C@H](C(=O)NCC(=O)NCC(=O)N[C@@H](Cc1c[nH]cn1)C(=O)N[C@@H](CCC(N)=O)C(=O)NCC(=O)N[C@@H](CC(N)=O)C(=O)N[C@@H](Cc1c[nH]cn1)C(=O)N[C@@H](CCCCN)C(=O)N[C@@H](CS)C(=O)O)[C@@H](C)O)[C@@H](C)CC [compound 4]
molecular stability / stability in solution during storage, handling and assays: significantly greater
